The source of these data is US20250163104A1, “MACROCYCLIC IMMUNOMODULATORS” (priority 2021, published 2025).

Where a SMILES comes first, the peptide text is derived from it. Bridges are numbered along the chain shown (N, C = ends). [ ]: non-standard residue; d: D form. The star is where a group is joined. Phe(3-CF3) = N[C@@H](Cc1cccc(C(F)(F)F)c1)C(=O)O; Ala(morpholin-4-yl) = N[C@@H](CN1CCOCC1)C(=O)O; Phe(4-COOH) = N[C@@H](Cc1ccc(C(=O)O)cc1)C(=O)O; Bip = N[C@@H](Cc1ccc(-c2ccccc2)cc1)C(=O)O; Abu(3R-NH2) = C[C@@H](N)[C@H](N)C(=O)O; Phe(3-Me) = Cc1cccc(C[C@H](N)C(=O)O)c1; Val(3-OH) = CC(C)(O)[C@H](N)C(=O)O; Cha = N[C@@H](CC1CCCCC1)C(=O)O; Carboxymethyl = O=C(O)C*; Nle = CCCC[C@H](N)C(=O)O; Orn = NCCC[C@H](N)C(=O)O; Dab = NCC[C@H](N)C(=O)O

In the assay the target is T1, human PD-1 / PD-L1-Ig binding on Jurkat cell line over-expressing human PD-1 (Jurkat-PD-1) (Homo sapiens, UniProt Q15116).
T1 construct: expressed in transfected cells; host or cells: Jurkat
T1 sequence (Q15116 25-288): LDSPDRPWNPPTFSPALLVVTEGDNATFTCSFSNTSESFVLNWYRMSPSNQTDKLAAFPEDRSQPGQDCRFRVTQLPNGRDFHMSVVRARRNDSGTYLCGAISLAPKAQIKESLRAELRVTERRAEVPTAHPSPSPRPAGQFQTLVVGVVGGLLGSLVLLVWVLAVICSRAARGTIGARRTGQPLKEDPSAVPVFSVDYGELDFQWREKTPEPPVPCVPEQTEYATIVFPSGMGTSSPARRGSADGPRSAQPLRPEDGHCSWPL
The experiment in a line: Jurkat-PD-1 Cell Binding High-Content Screening Assay (CBA). The format is cell-based. The note with it: Jurkat-PD-1 cells, PE-labeled PD-L1-Ig 20 nM final; read-out: Jurkat HPD1_PDL1 IC50. A digest of the protocol: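 Jurkat cells over-expressing human PD-1, in DMEM/10% FCS, pre-incubated with compound 2 h at 37° C. PE-labeled human PD-L1-Ig (20 nM final) added for 1 h; cells fixed in paraformaldehyde with Hoechst 33342 nuclear stain, washed, and bound fluorescence quantified by high-content imaging.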
For the molecule `CC(C)C[C@H]1NC(=O)[C@H](CCCN)NC(=O)[C@H](Cc2ccc(C(=O)O)cc2)NC(=O)[C@H](Cc2ccc(-c3ccccc3)cc2)NC(=O)[C@H](Cc2ccc(C(=O)O)cc2)NC(=O)[C@H](Cc2cccc(C(F)(F)F)c2)NC(=O)[C@H](CC(=O)O)NC(=O)[C@H](Cc2ccc(C(=O)O)cc2)NC(=O)[C@H](CN2CCOCC2)NC(=O)CSC[C@@H](C(=O)N[C@@H](CCN)C(N)=O)NC(=O)[C@H](CCC(=O)O)NC(=O)[C@H](C(C)C)NC(=O)[C@H](CC2CCCCC2)NC(=O)[C@H](CCN)NC1=O` [Example 2712] ({CH2CO}-[Ala(morpholin-4-yl)][Phe(4-COOH)]D[Phe(3-CF3)][Phe(4-COOH)][Bip][Phe(4-COOH)][Orn][dL][Dab][Cha]VEC[Dab]-NH2; thioether N-14), the half-inhibitory concentration (IC50) came to 2.8 nM.

Regarding `CCCC[C@@H]1NC(=O)CSC[C@@H](C(=O)N[C@@H](CCN)C(N)=O)NC(=O)[C@H](CO)NC(=O)[C@H](C(C)(C)O)NC(=O)[C@H](CC2CCCCC2)NC(=O)[C@H](CCN)NC(=O)[C@@H](CC(C)C)NC(=O)[C@H](CCCN)NC(=O)[C@H](Cc2ccc(C(=O)O)cc2)NC(=O)[C@H](Cc2ccc(-c3ccccc3)cc2)NC(=O)[C@H](Cc2ccc(C(=O)O)cc2)NC(=O)[C@H](Cc2cccc(C(F)(F)F)c2)NC(=O)[C@H](CC(=O)O)NC(=O)[C@H](Cc2ccc(OCC(=O)O)cc2)NC1=O` [Example 2713] ({CH2CO}-[Nle]Y(Carboxymethyl)D[Phe(3-CF3)][Phe(4-COOH)][Bip][Phe(4-COOH)][Orn][dL][Dab][Cha][Val(3-OH)]SC[Dab]-NH2; thioether N-14), the IC50 worked out at 0.7 nM.

Consider `CCCC[C@@H]1NC(=O)CSC[C@@H](C(=O)N[C@@H](CCN)C(N)=O)NC(=O)[C@H](CCC(=O)O)NC(=O)[C@H](C(C)(C)O)NC(=O)[C@H](CC2CCCCC2)NC(=O)[C@H](CCN)NC(=O)[C@@H](CC(C)C)NC(=O)[C@H](CCCN)NC(=O)[C@H](Cc2ccc(C(=O)O)cc2)NC(=O)[C@H](Cc2ccc(-c3ccccc3)cc2)NC(=O)[C@H](Cc2ccc(C(=O)O)cc2)NC(=O)[C@H](Cc2cccc(C)c2)NC(=O)[C@H](CC(=O)O)NC(=O)[C@H](Cc2ccc(OCC(=O)O)cc2)NC1=O` [Example 2714] ({CH2CO}-[Nle]Y(Carboxymethyl)D[Phe(3-Me)][Phe(4-COOH)][Bip][Phe(4-COOH)][Orn][dL][Dab][Cha][Val(3-OH)]EC[Dab]-NH2; thioether N-14), for which the half-maximal inhibitory concentration (IC50) is 0.3 nM.

`CC(C)C[C@H]1NC(=O)[C@H](CCCN)NC(=O)[C@H](Cc2ccc(C(=O)O)cc2)NC(=O)[C@H](Cc2ccc(-c3ccccc3)cc2)NC(=O)[C@H](Cc2ccc(C(=O)O)cc2)NC(=O)[C@H](Cc2cccc(C(F)(F)F)c2)NC(=O)[C@H](CC(N)=O)NC(=O)[C@H](Cc2ccc(C(=O)O)cc2)NC(=O)[C@H]([C@@H](C)N)NC(=O)CSC[C@@H](C(=O)N[C@@H](CCN)C(N)=O)NC(=O)[C@H](CO)NC(=O)[C@H](C(C)(C)O)NC(=O)[C@H](CC2CCCCC2)NC(=O)[C@H](CCN)NC1=O` [Example 2717] ({CH2CO}-[Abu(3R-NH2)][Phe(4-COOH)]N[Phe(3-CF3)][Phe(4-COOH)][Bip][Phe(4-COOH)][Orn][dL][Dab][Cha][Val(3-OH)]SC[Dab]-NH2; thioether N-14): the half-maximal inhibitory concentration (IC50) came out at 35.6 nM.

For `CCCC[C@@H]1NC(=O)CSC[C@@H](C(=O)N[C@@H](CCN)C(N)=O)NC(=O)[C@H](CO)NC(=O)[C@H](C(C)(C)O)NC(=O)[C@H](CC2CCCCC2)NC(=O)[C@H](CCN)NC(=O)[C@@H](CC(C)C)NC(=O)[C@H](CCCN)NC(=O)[C@H](Cc2ccc(C(=O)O)cc2)NC(=O)[C@H](Cc2ccc(-c3ccccc3)cc2)NC(=O)[C@H](Cc2ccc(C(=O)O)cc2)NC(=O)[C@H](Cc2cccc(C(F)(F)F)c2)NC(=O)[C@H](CC(N)=O)NC(=O)[C@H](Cc2ccc(C(=O)O)cc2)NC1=O` [Example 2718] ({CH2CO}-[Nle][Phe(4-COOH)]N[Phe(3-CF3)][Phe(4-COOH)][Bip][Phe(4-COOH)][Orn][dL][Dab][Cha][Val(3-OH)]SC[Dab]-NH2; thioether N-14), the half-maximal inhibitory concentration (IC50) is 330 nM.

In general, IC50 refers to the concentration at which inhibition is half-maximal.
